Measurements published in patent US20250041312A1, “METHODS OF ADMINISTERING A MODULATOR OF HEMOGLOBIN” (Global Blood Therapeutics, Inc., priority 2021, published 2025).
Read-outs that look alike come from different tables or passages of the source. Marks after values point to notes of the source that are not given here.

Legend:
hemoglobin = target: T1, hemoglobin (Homo sapiens, UniProt P68871+P69905); assay: Percent Hb occupancy after single doses, healthy volunteers; type: in vivo; conditions: for % Hb occupancy based on Cmax: mean
T1 construct: divided by the molar concentration of hemoglobin in RBCs; endogenous in cells; host or cells: red blood cells of healthy volunteers (in vivo)
Protocol: In some embodiments, the therapeutically effective amount is determined by measuring the percent of hemoglobin occupied by the compound, i.e., the percent Hb occupancy. The percent Hb occupancy is a measure of target engagement defined as the percentage of hemoglobin bound by a compound (e.g., Compound I) calculated as the molar concentration of the compound (e.g., Compound I) in RBCs divided by the molar concentration of hemoglobin in RBCs (the mean corpuscular hemoglobin concentration calculated from the hematology panel). The values for concentration of a compound (e.g., Compound I) in RBCs is calculated from the concentrations in whole blood and plasma, and the hematocrit.
Percent hemoglobin occupancy was calculated as follows, wherein MCHC refers to mean corpuscular hemoglobin concentration, and Hct refers to hematocrit: […]

[1] = Single ascending dose (SAD) study in healthy volunteers: safety and tolerability (TEAEs); type: in vivo, human
Protocol: To evaluate the safety and tolerability of single ascending doses of Compound I, 48 healthy volunteers (42 in the fasted state and 6 in the fed state) aged 18 to 55 years old were administered single ascending doses (50 mg to 2200 mg) of Compound I, while 16 healthy volunteers (14 in the fasted state and 2 in the fed state) aged 18 to 55 years old were administered placebo in a double blind, randomized, sequential manner.
Primary endpoints were safety and tolerability; key secondary endpoints included PK and effect of food (high-fat meal).
The few that were considered drug-related resolved with little to no intervention.

[2] = SCD cohort PK after repeated dosing; type: in vivo, human; conditions: for Cmax: 150 mg
Protocol: After a washout period of at least 56 days (so that elimination PK of Compound I could be assessed), the patients were administered a loading dose of 300 mg per day of Compound I for one day followed by 200 mg per day of Compound I for one day, and then were administered a maintenance dose of 50 mg per day of Compound I for five weeks (“MAD-1 Cohort”). The same patients then received another loading dose of 500 mg per day of Compound I for one day followed by 400 mg per day of Compound I for one day, and then were administered another maintenance dose of 100 mg per day of Compound I for three weeks (“MAD-2 Cohort”). The total treatment period of the MAD-1 Cohort and MAD-2 Cohort was 8 weeks.
Following the conclusion of the MAD-2 study and a washout period of about 8 months, the selected patients (n=4) were administered a loading dose of 300 mg BID for 4 days, followed thereafter by a maintenance dose of 150 mg QD (MAD-3 Cohort).
The concentrations of Compound I in whole blood and plasma at week 6 in patients who participated in the MAD-3 cohort are shown in Table 19.

[3] = HV single 50 mg, blinded, n=8 incl. placebo
[4] = HV single 50 mg, unblinded, n=6
[5] = HV single 100 mg, blinded, n=8 incl. placebo
[6] = HV single 100 mg, unblinded, n=6
[7] = HV single 200 mg fed (high-fat meal), blinded, n=8 incl. placebo
[8] = HV single 200 mg fed (high-fat meal), unblinded, n=6
[9] = HV single 200 mg, blinded, n=8 incl. placebo
[10] = HV single 200 mg, unblinded, n=6
[11] = HV single 400 mg, blinded, n=8 incl. placebo
[12] = HV single 400 mg, unblinded, n=6
[13] = HV single 800 mg, blinded, n=8 incl. placebo
[14] = HV single 800 mg, unblinded, n=6
[15] = HV single 1400 mg, blinded, n=8 incl. placebo
[16] = HV single 1400 mg, unblinded, n=6
[17] = HV single 2200 mg, blinded, n=8 incl. placebo
[18] = HV single 2200 mg, unblinded, n=6

T1 sequence (P69905 2-142 limits assumed): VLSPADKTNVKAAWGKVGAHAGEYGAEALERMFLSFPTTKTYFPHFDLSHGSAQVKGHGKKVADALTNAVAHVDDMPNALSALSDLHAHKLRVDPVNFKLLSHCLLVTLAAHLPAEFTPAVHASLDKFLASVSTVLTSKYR
T1 sequence (P68871 2-147 limits assumed): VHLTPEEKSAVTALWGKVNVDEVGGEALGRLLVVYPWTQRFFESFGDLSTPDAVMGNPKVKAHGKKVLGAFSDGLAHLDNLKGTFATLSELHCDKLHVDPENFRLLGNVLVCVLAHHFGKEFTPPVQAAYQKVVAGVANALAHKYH

With `O=Cc1c(O)cccc1OC[C@@H]1COCCN1C(=O)c1cccnc1CCO` [Compound I, (S)-2-hydroxy-6-((4-(2-(2-hydroxyethyl)nicotinoyl)morpholin-3-yl)methoxy)benzaldehyde] the “% Hb occupancy based on Cmax” value (hemoglobin; HV single 50 mg) was 0.88%, the “% Hb occupancy based on Cmax” value (hemoglobin; HV single 100 mg) was 1.9% and the “% Hb occupancy based on Cmax” value (hemoglobin; HV single 200 mg) was 3.8%. For the same compound, the “% Hb occupancy based on Cmax” value (hemoglobin; HV single 400 mg) was 9.5%, the “% Hb occupancy based on Cmax” value (hemoglobin; HV single 800 mg) was 16.8% and the “% Hb occupancy based on Cmax” value (hemoglobin; HV single 1400 mg) was 25%. The “% Hb occupancy based on Cmax” value (hemoglobin; HV single 2200 mg) was 43.9%, the “difference in Hb occupancy between fasting and fed states” value (hemoglobin; HV, 200 mg single dose) was “no observable difference” and the “percent Hb occupancy, dependence on dose” value (hemoglobin; HV, single doses (FIG. 1)) was “dose-dependent increase”. The “Hb occupancies compared with voxelotor” value (hemoglobin; HV, single doses over a similar range) was “exceed those reported in healthy volunteers receiving single doses of voxelotor”, the “adverse events indicative of tissue hypoxia” value ([1]; HV SAD) was “no adverse events indicative of tissue hypoxia” and the “grade of adverse events (CTCAE v5.0)” value ([1]; HV SAD, blinded study) was “mostly grade 1 or 2”. For the same compound, the “Number of SAEs” value [1, 3] was 0, the “Number of TEAEs” value [1, 3] was 14 and the “Number of TEAEs grade ≥ 3” value [1, 3] was 0. The “Number of TEAEs leading to study drug discontinuation” value (“Number of TEAEs leading” below) [1, 3] was 0, the “Number of drug-related TEAEs” value [1, 3] was 2 and the “Number of SAEs” value [1, 4] was 0. The “Number of TEAEs” value [1, 4] was 11, the “Number of TEAEs grade ≥ 3” value [1, 4] was 0 and the “Number of TEAEs leading” value [1, 4] was 0. The “Number of drug-related TEAEs” value [1, 4] was 1, the “Number of SAEs” value [1, 5] was 0 and the “Number of TEAEs” value [1, 5] was 13. For the same compound, the “Number of TEAEs grade ≥ 3” value [1, 5] was 0, the “Number of TEAEs leading” value [1, 5] was 0 and the “Number of drug-related TEAEs” value [1, 5] was 1. For the same compound, the “Number of SAEs” value [1, 6] was 0, the “Number of TEAEs” value [1, 6] was 10 and the “Number of TEAEs grade ≥ 3” value [1, 6] was 0. For the same compound, the “Number of TEAEs leading” value [1, 6] was 0, the “Number of drug-related TEAEs” value [1, 6] was 1 and the “Number of SAEs” value [1, 7] was 0. The “Number of TEAEs” value [1, 7] was 8, the “Number of TEAEs grade ≥ 3” value [1, 7] was 1 and the “Number of TEAEs leading” value [1, 7] was 0. For the same compound, the “Number of drug-related TEAEs” value [1, 7] was 0, the “Number of SAEs” value [1, 8] was 0 and the “Number of TEAEs” value [1, 8] was 7. For the same compound, the “Number of TEAEs grade ≥ 3” value [1, 8] was 1, the “Number of TEAEs leading” value [1, 8] was 0 and the “Number of drug-related TEAEs” value [1, 8] was 0. The “Number of SAEs” value [1, 9] was 0, the “Number of TEAEs” value [1, 9] was 16 and the “Number of TEAEs grade ≥ 3” value [1, 9] was 0. The “Number of TEAEs leading” value [1, 9] was 0, the “Number of drug-related TEAEs” value [1, 9] was 0 and the “Number of SAEs” value [1, 10] was 0. For the same compound, the “Number of TEAEs” value [1, 10] was 15, the “Number of TEAEs grade ≥ 3” value [1, 10] was 0 and the “Number of TEAEs leading” value [1, 10] was 0. The “Number of drug-related TEAEs” value [1, 10] was 0, the “Number of TEAEs” value [1, 11] was 23^ and the “Number of TEAEs grade ≥ 3” value [1, 11] was 1^. For the same compound, the “Number of TEAEs leading” value [1, 11] was 0^, the “Number of drug-related TEAEs” value [1, 11] was 1^ and the “Number of SAEs” value ([1]; HV single 400 mg, blinded, n=8 incl. placebo, SAE was a traumatic brain injury, not drug related) was 1^c. The “Number of TEAEs” value [1, 12] was 16^, the “Number of TEAEs grade ≥ 3” value [1, 12] was 1^ and the “Number of TEAEs leading” value [1, 12] was 0^. The “Number of drug-related TEAEs” value [1, 12] was 1^, the “Number of SAEs” value ([1]; HV single 400 mg, unblinded, n=6, SAE was a traumatic brain injury, not drug related) was 1^c and the “Number of SAEs” value [1, 13] was 0. The “Number of TEAEs” value [1, 13] was 14, the “Number of TEAEs grade ≥ 3” value [1, 13] was 0 and the “Number of TEAEs leading” value [1, 13] was 0. For the same compound, the “Number of drug-related TEAEs” value [1, 13] was 3, the “Number of SAEs” value [1, 14] was 0 and the “Number of TEAEs” value [1, 14] was 10. For the same compound, the “Number of TEAEs grade ≥ 3” value [1, 14] was 0, the “Number of TEAEs leading” value [1, 14] was 0 and the “Number of drug-related TEAEs” value [1, 14] was 3. The “Number of SAEs” value [1, 15] was 0, the “Number of TEAEs” value [1, 15] was 29 and the “Number of TEAEs grade ≥ 3” value [1, 15] was 0. The “Number of TEAEs leading” value [1, 15] was 0, the “Number of drug-related TEAEs” value [1, 15] was 4 and the “Number of SAEs” value [1, 16] was 0. For the same compound, the “Number of TEAEs” value [1, 16] was 26, the “Number of TEAEs grade ≥ 3” value [1, 16] was 0 and the “Number of TEAEs leading” value [1, 16] was 0. The “Number of drug-related TEAEs” value [1, 16] was 4, the “Number of SAEs” value [1, 17] was 0 and the “Number of TEAEs” value [1, 17] was 17. For the same compound, the “Number of TEAEs grade ≥ 3” value [1, 17] was 0, the “Number of TEAEs leading” value [1, 17] was 0 and the “Number of drug-related TEAEs” value [1, 17] was 4. For the same compound, the “Number of SAEs” value [1, 18] was 0, the “Number of TEAEs” value [1, 18] was 18 and the “Number of TEAEs grade ≥ 3” value [1, 18] was 0. For the same compound, the “Number of TEAEs leading” value [1, 18] was 0, the “Number of drug-related TEAEs” value [1, 18] was 4 and the “time to steady-state concentrations with model-selected first doses” value ([2]; SCD, loading doses followed by 50 mg and 100 mg second doses (FIG. 15)) was at most 1 week. The half-life ([2]; human, in vivo, SCD, after the last dose (MAD-2), assessed over about 15 weeks, read-out: elimination t1/2 (converted)) was about 240 h, the Cmax ([2]; human, plasma, MAD-3 (150 mg QD) week 6, SCD patient 0001, read-out: Plasma (Cmax) Concentration) was 6980 ng/mL and the Cmax ([2]; human, plasma, MAD-3 (150 mg QD) week 6, SCD patient 0003 (did not adhere to regimen), read-out: Plasma (Cmax) Concentration) was 1610 ng/mL. For the same compound, the Cmax ([2]; human, plasma, MAD-3 (150 mg QD) week 6, SCD patient 0004, read-out: Plasma (Cmax) Concentration) was 3830 ng/mL, the Cmax ([2]; human, plasma, MAD-3 (150 mg QD) week 6, SCD patient 0005, read-out: Plasma (Cmax) Concentration) was 7610 ng/mL and the Cmax ([2]; human, whole blood, MAD-3 (150 mg QD) week 6, SCD patient 0001, read-out: Whole Blood (Cmax) Concentration) was 322000 ng/mL. For the same compound, the Cmax ([2]; human, whole blood, MAD-3 (150 mg QD) week 6, SCD patient 0003 (did not adhere to regimen), read-out: Whole Blood (Cmax) Concentration) was 36700 ng/mL, the Cmax ([2]; human, whole blood, MAD-3 (150 mg QD) week 6, SCD patient 0004, read-out: Whole Blood (Cmax) Concentration) was 259000 ng/mL and the Cmax ([2]; human, whole blood, MAD-3 (150 mg QD) week 6, SCD patient 0005, read-out: Whole Blood (Cmax) Concentration) was 308000 ng/mL.
